Read-outs that look alike come from different tables or passages of the source.

The test system of data set [1] is C. albicans. The data set is described as follows: Sustained inhibition biofilm assay, fungal. In kind it is cell-based, Candida albicans. Here is the method:
(§1) Two types of biofilm assays were performed: a sustained inhibition assay and a disruption assay. The sustained inhibition assay assesses the compound's ability to prevent biofilm development throughout all stages of biofilm formation, while the disruption assay assesses the compound's ability to break up an existing mature biofilm. These assays are described in detail in the following article: Lohse, M. B., Gulati, M., Valle Arevalo, A., Fishburn, A., Johnson, A. D., and Nobile, C. […] Antimicrobial Agents and Chemotherapy 61: e02749-16.
(§2) All bacterial biofilm solutions were prepared in Trypic Soy Broth (TSB), supplemented with 1% glucose (henceforth referred to as TSB-G). All subsequent procedures were performed in a manner that maintained sterility. A solution of each amino acid to be tested was prepared in weight to volume concentrations ranging from 0.1-5.0%. Amino acids were also tested in combinations. Compound solutions were homogenized with gentle agitation in the dark (4° C., 24 hours) before use.
(§3) Fungal strains were streaked on Yeast Peptone Dextrose (YPD) agar plates and incubated at 30° C. for 48 hours. A single colony from each strain to be tested was inoculated into YPD broth and grown for 12 hours, at 30° C., shaking at 225 rpm. […] The cells were allowed to adhere to the plate for 90 minutes at 37° C. with shaking (350 rpm). […] The plate was further incubated for 24 hours at 37° C. with shaking (350 rpm). Media was carefully aspirated and the biofilm was measured by optical density at 600 nm. […] The cells were allowed to adhere to the plate for 90 minutes at 37° C. with shaking (350 rpm). […] The plate was further incubated for 24 hours at 37° C. with shaking (350 rpm). […] The plate was further incubated for 24 hours at 37° C. with shaking (350 rpm). Media was carefully aspirated and the biofilm was measured by optical density at 600 nm.

Data set [2] relates to S. aureus. The data set is described as follows: Disruption biofilm assay, bacterial. The conditions noted are these: Staphylococcus aureus; for inhibition at 1 %: 24 h, read-out: Reduce B Biofilm. In kind it is cell-based, Staphylococcus aureus. On the procedure:
as §1, §2
(§4) Bacterial strains were streaked on Blood Agar plates (5% sheep blood in Tryptic Soy Agar) and incubated at 37° C. for 24 hours. A single colony from each strain to be tested was inoculated in a TSB broth and grown for 12 hours, at 37° C. with shaking (225 rpm). For the bacterial biofilm inhibition assays, 1 μL of saturated overnight cell culture was added to either 80 μL of TSB-G, or TSB-G supplemented with the amino acid compound solution to be tested, in a 384-well plate. The cells were allowed to adhere to the plate for 60 minutes at 37° C. without shaking. The media was carefully aspirated and 80 μL of TSB-G, or TSB-G supplemented with the amino acid compound solution was added to the plate. The plate was further incubated for 24 hours at 37° C. without shaking. Media was carefully aspirated and the biofilm was measured by optical density at 600 nm. Eight or twelve replicates were performed for each tested condition and the reported values are normalized to the control (TSB-G media only). For the bacterial biofilm disruption assays, 80 μL of TSB-G was added to the plate, along with 1 μL of overnight cell culture. The cells were allowed to adhere to the plate for 60 minutes at 37° C. with no shaking. The media was carefully aspirated and 80 μL of TSB-G was added to the plate. The plate was further incubated for 24 hours at 37° C. with no shaking. Media was carefully aspirated from the mature biofilm and 80 μL of TSB-G, or TSB-G supplemented with the amino acid to be tested, was gently added to the plate. The plate was further incubated for 24 hours at 37° C. without shaking. Media was aspirated and the biofilm was measured by optical density at 600 nm. Twelve replicates were performed for each tested condition and the reported values are normalized to the control (TSB-G media only).

In the next data set the test system is fungal biofilms. The data set is described as follows: Biofilm assays (sustained inhibition and/or disruption), fungal biofilms. In kind it is cell-based. The conditions noted are these: in at least one of the two biofilm assays; for Anti-biofilm effect against fungal biofilms (reduction): administered individually. On the procedure: (§5) Two types of biofilm assays were performed: a sustained inhibition assay and a disruption assay. The sustained inhibition assay assesses the compound's ability to prevent biofilm development throughout all stages of biofilm formation, while the disruption assay assesses the compound's ability to break up an existing mature biofilm. These assays are described in detail in the following article: Lohse, M. B., Gulati, M., Valle Arevalo, A., Fishburn, A., Johnson, A. D., and Nobile, C. J. (2017) Assessment and optimizations of Candida albicans in vitro biofilm assays. Antimicrobial Agents and Chemotherapy 61: e02749-16.
(§6) For fungal biofilm assays, all solutions were prepared in RPMI 1640 medium. All bacterial biofilm solutions were prepared in Trypic Soy Broth (TSB), supplemented with 1% glucose (henceforth referred to as TSB-G). All subsequent procedures were performed in a manner that maintained sterility. A solution of each amino acid to be tested was prepared in weight to volume concentrations ranging from 0.1-5.0%. Amino acids were also tested in combinations. Compound solutions were homogenized with gentle agitation in the dark (4° C., 24 hours) before use.
(§7) All biofilm assays were performed using 384-well non-tissue culture treated polystyrene plates. The fungal species tested are as follows: Candida albicans, Candida guilhermondii, Candida parapsilosis, Candida glabrata, Candida tropicalis, Candida dubliniensis, and Candida auris. The bacterial species tested are as follows: Staphylococcus aureus (standard wild type and methicillin-resistant strain USA300), Escherichia coli, Pseudomonas aeruginosa and Staphylococcus epidermidis.
(§8) Fungal strains were streaked on Yeast Peptone Dextrose (YPD) agar plates and incubated at 30° C. for 48 hours. A single colony from each strain to be tested was inoculated into YPD broth and grown for 12 hours, at 30° C., shaking at 225 rpm. For the fungal biofilm inhibition assay, 1 μl of saturated overnight cell culture was added to either 80 μL of RPMI-1640 or RPMI-1640 supplemented with the amino acid compound solution to be tested, in a 384-well plate. The cells were allowed to adhere to the plate for 90 minutes at 37° C. with shaking (350 rpm). Loosely bound cells were washed once with phosphate buffered saline (PBS) and 80 ul of RPMI-1640, or RPMI-1640 supplemented with the amino acid compound solution was added to the plate. The plate was further incubated for 24 hours at 37° C. with shaking (350 rpm). Media was carefully aspirated and the biofilm was measured by optical density at 600 nm. Twelve replicates were performed for each tested condition and the reported values are normalized to the control (RPMI-1640 media only). For the fungal biofilm disruption assays, 80 μL of RPMI-1640 was added to the plate, along with 1 μL of overnight cell culture. The cells were allowed to adhere to the plate for 90 minutes at 37° C. with shaking (350 rpm). Loosely bound cells were washed once with PBS and 80 μL of RPMI-1640 was added to the plate. The plate was further incubated for 24 hours at 37° C. with shaking (350 rpm). Media was carefully aspirated from the mature biofilm and 80 μL of RPMI-1640, or RPMI-1640 supplemented with the amino acid compound solution to be tested, was gently added to the plate. The plate was further incubated for 24 hours at 37° C. with shaking (350 rpm). Media was carefully aspirated and the biofilm was measured by optical density at 600 nm. Twelve replicates were performed for each tested condition and the reported values are normalized to the control (RPMI-1640 media only).

In data set [3] the test system is C. albicans. Nature of the data set: Disruption biofilm assay, fungal. The format is cell-based, Candida albicans. On the procedure:
as §1, §2, §3

Data set [4] concerns S. aureus. Nature of the data set: Sustained inhibition biofilm assay, bacterial. In kind it is cell-based, Staphylococcus aureus. On the procedure:
as §1, §2, §4

The test system of data set [5] is bacteria (S. aureus) biofilm and fungal (C. albicans) biofilm. The data set is described as follows: Sustained inhibition biofilm assay, bacterial and fungal taken together. In kind it is cell-based. On the procedure:
as §5, §6
(§9) Fungal strains were streaked on Yeast Peptone Dextrose (YPD) agar plates and incubated at 30° C. for 48 hours. A single colony from each strain to be tested was inoculated into YPD broth and grown for 12 hours, at 30° C., shaking at 225 rpm. For the fungal biofilm inhibition assay, 1 μl of saturated overnight cell culture was added to either 80 μL of RPMI-1640 or RPMI-1640 supplemented with the amino acid compound solution to be tested, in a 384-well plate. […] Media was carefully aspirated and the biofilm was measured by optical density at 600 nm. […] Media was carefully aspirated and the biofilm was measured by optical density at 600 nm. […]
(§10) Bacterial strains were streaked on Blood Agar plates (5% sheep blood in Tryptic Soy Agar) and incubated at 37° C. for 24 hours. […] Media was carefully aspirated and the biofilm was measured by optical density at 600 nm. […]

Data set [6] shares this test system. The data set is described as follows: Disruption biofilm assay, bacterial and fungal taken together. In kind it is cell-based. Here is the method:
as §5, §6, §9, §10

For data set [7], the system named is fungal and bacterial biofilms. Nature of the data set: Biofilm assays (sustained inhibition and disruption), fungal and bacterial biofilms. In kind it is cell-based. Conditions: for Effect on biofilms: single component on its own. Here is the method: as §5, §6, §7, §8
Bacterial strains were streaked on Blood Agar plates (5% sheep blood in Tryptic Soy Agar) and incubated at 37° C. for 24 hours. A single colony from each strain to be tested was inoculated in a TSB broth and grown for 12 hours, at 37° C. with shaking (225 rpm).

A short description of data set [8]: Thermal stability in hot aqueous solution. In kind it is physicochemical. The conditions noted are these: water at about 90° C. to 100° C. The text has this:
This ingredient is the non-essential amino acid glutamine.

The next data set relates to bacterial biofilms. The data set is described as follows: Biofilm assays (sustained inhibition and/or disruption), bacterial biofilms. In kind it is cell-based. Conditions: in at least one of the two biofilm assays. On the procedure:
as §5, §6, §7, §4

[9] abbreviates: sustained inhibition assay, C. albicans, 1% amino acid (unless specifically noted), p≤0.001.
Where [10] appears, read: disruption assay, S. aureus, 1% amino acid (unless specifically noted), p≤0.001.
Setting [11] is: disruption assay, C. albicans, 1% amino acid (unless specifically noted), p≤0.001.

`Cn1cncc1C[C@H](N)C(=O)O` [3-Methylhistidine, 3-methyl-L-histidine]: in the data set with C. albicans [1] (setting [9]), the “Promote F Biofilm” value is “● (a single dot [ie. •] signifies minor effect (from about 10 to about 30% change))”. Further, the inhibition at 1 % with S. aureus [2] (setting [10]) lay in the range of 10 to 30%. Also, the “Effect on fungal biofilm growth” value in the data set on fungal biofilms is listed as “support (improve) fungal biofilm growth”.
`N[C@@H](CS)C(=O)O` [Cysteine, L-cysteine]: the “Reduce F Biofilm” value in the data set with C. albicans [1] (setting [9]) and in the data set on C. albicans [3] (setting [11]) was “●● (two dots [ie. ••] signifies major effect (greater than about 30% change))” in each case. The “Reduce B Biofilm” value in the data set with S. aureus [4] (sustained inhibition assay, S. aureus, 1% amino acid (unless specifically noted), p≤0.001) is “●● (two dots [ie. ••] signifies major effect (greater than about 30% change))”. For the same compound, the “Reduce Both” value in [5] (sustained inhibition assay, bacterial and fungal biofilm, 1% amino acid (unless specifically noted), p≤0.001) is “●● (two dots [ie. ••] signifies major effect (greater than about 30% change))”; in data set [6] (disruption assay, bacterial and fungal biofilm, 1% amino acid (unless specifically noted), p≤0.001) it was “●● (two dots [ie. ••] signifies major effect (greater than about 30% change))”. Moreover, the inhibition at 1 % with S. aureus [2] (setting [10]) is over 30%.
Regarding `NCCO` [Ethanolamine, ethanolamine], the “Reduce F Biofilm” value in the data set on C. albicans [1] (setting [9]) was “● (a single dot [ie. •] signifies minor effect (from about 10 to about 30% change))”. For the same compound, in the data set on fungal biofilms, the “Anti-biofilm effect against fungal biofilms (reduction)” value (from here on “Anti-biofilm effect … (reduction)”) is “less than twofold”.
With `N[C@@H](CCC(=O)O)C(=O)O` [Glutamic Acid, L-glutamic acid], the “Reduce F Biofilm” value with C. albicans [1] and in the data set with C. albicans [3] was “●● (two dots [ie. ••] signifies major effect (greater than about 30% change))” each time. For the same compound, in the data set on S. aureus [4], the “Reduce B Biofilm” value is “●● (two dots [ie. ••] signifies major effect (greater than about 30% change))”. For the same compound, the “Reduce Both” value in data set [5] and in data set [6] was “●● (two dots [ie. ••] signifies major effect (greater than about 30% change))” each time. In the data set on S. aureus [2], the inhibition at 1 % is over 30%. The Effect on biofilms result in [7] is recorded as “very active against biofilms”.
As for `NC(=O)CC[C@H](N)C(=O)O` [Glutamine, L-glutamine], the “Thermal degradation in aqueous solution” value in [8] is given as “highly susceptible to thermal degradation”. In addition, the “Effect on bacterial or fungal biofilms in both assays” value in data set [7] (sustained inhibition and disruption) is “neutral”.
Consider `N[C@@H](CCS)C(=O)O` [Homocysteine (0.4%), L-homocysteine], for which the “Anti-biofilm effect … (reduction)” value with fungal biofilms is reported as “less than twofold”.
With `N[C@@H](COP(=O)(O)O)C(=O)O` [Phosphoserine, O-phospho-L-serine], the “Reduce F Biofilm” value with C. albicans [3] (setting [11]) was “● (a single dot [ie. •] signifies minor effect (from about 10 to about 30% change))”. For the same compound, in the data set on S. aureus [2] (setting [10]), the inhibition at 1 % lay in the range of 10 to 30%. Besides, in the data set on fungal biofilms, the “Anti-biofilm effect … (reduction)” value is reported as “less than twofold”.
Take `O=C(O)[C@@H]1CCCN1` [Proline, L-proline]: in the data set on bacterial biofilms, the “Effect on bacterial biofilm growth” value is reported as “support (improve) bacterial biofilm growth”. Also, the “Reduce F Biofilm” value in the data set on C. albicans [3] (setting [11]) was “● (a single dot [ie. •] signifies minor effect (from about 10 to about 30% change))”. In addition, in the data set with S. aureus [2] (disruption assay, S. aureus, 1% amino acid (unless specifically noted), p≤0.001, read-out: Promote B Biofilm), the activation at 1 % was 10 to 30%. In addition, in the data set on fungal biofilms, the “Anti-biofilm effect … (reduction)” value is reported as “less than twofold”.
As to `CC(C)[C@H](N)C(=O)O` [Valine, L-valine], in the data set on C. albicans [1] (setting [9]), the “Promote F Biofilm” value was “● (a single dot [ie. •] signifies minor effect (from about 10 to about 30% change))”. In addition, in the data set with S. aureus [2] (setting [10]), the inhibition at 1 % lay within 10 to 30%. The “Effect on fungal biofilm growth” value in the data set with fungal biofilms is listed as “support (improve) fungal biofilm growth”.
Turning to `OCC(O)CO` [glycerol], the Effect on biofilms result in [7] is on record as “not found to have antibiofilm effects”.

Source of the values: patent US11779559B2, “Compositions for treating fungal and bacterial biofilms and methods of using the same” (priority 2017, dated 2023).
